Experimental data taken from patent US11331369B2, “Endoparasitic depsipeptides” (Zoetis Services LLC, priority 2017, dated 2022).

Tests used:
[1] = test system: microfilariae of Dirofilaria immitis; experiment: Dirofilaria immitis, Microfilaria (DiMF) In vitro Assay; assay type: cell-based; details: 72 h, read-out: DiMF Minimum Effective Dose (MED), approximately 72 hours incubation, microfilariae assessed for survival or paralysis
[2] = test system: third stage larvae of Haemonchus contortus; experiment: Haemonchus contortus L3 (HcL3) Assay; assay type: cell-based; details: 96 h, read-out: HcL3 Minimum Effective Dose (MED)

Structure (SMILES)	minimal effective concentration [1] [µM]	minimal effective concentration [2] [µM]
Cc1cc(C)n(Cc2ccc(C[C@H]3OC(=O)[C@H](CC(C)C)N(C)C(=O)[C@@H](C)OC(=O)[C@H](CC(C)C)N(C)C(=O)[C@@H](Cc4ccccc4)OC(=O)[C@H](CC(C)C)N(C)C(=O)[C@@H](C)OC(=O)[C@H](CC(C)C)N(C)C3=O)cc2)n1 [Example 2-7, (3S,6R,9S,12R,15S,18R,21S,24R)-6-benzyl-18-[[4-[(3,5-dimethylpyrazol-1-yl)methyl]phenyl]methyl]-3,9,15,21-tetraisobutyl-4,10,12,16,22,24-hexamethyl-1,7,13,19-tetraoxa-4,10,16,22-tetrazacyclotetracosane-2,5,8,11,14,17,20,23-octaone]	0.001 to 0.01	1 to 10
CC(C)C[C@H]1C(=O)O[C@H](Cc2ccc(Cn3cc(CO)cn3)cc2)C(=O)N(C)[C@@H](CC(C)C)C(=O)O[C@H](C)C(=O)N(C)[C@@H](CC(C)C)C(=O)O[C@H](Cc2ccccc2)C(=O)N(C)[C@@H](CC(C)C)C(=O)O[C@H](C)C(=O)N1C [Example 2-19, (3S,6R,9S,12R,15S,18R,21S,24R)-6-benzyl-18-(4-((4-(hydroxymethyl)-1H-pyrazol-1-yl)methyl)benzyl)-3,9,15,21-tetraisobutyl-4,10,12,16,22,24-hexamethyl-1,7,13,19-tetraoxa-4,10,16,22-tetraazacyclotetracosan-2,5,8,11,14,17,20,23-octaone]	0.001 to 0.01	1 to 10
CC(C)C[C@H]1C(=O)O[C@H](Cc2ccc(Cn3cc(-c4ccncn4)cn3)cc2)C(=O)N(C)[C@@H](CC(C)C)C(=O)O[C@H](C)C(=O)N(C)[C@@H](CC(C)C)C(=O)O[C@H](Cc2ccccc2)C(=O)N(C)[C@@H](CC(C)C)C(=O)O[C@H](C)C(=O)N1C [Example 2-45, (3S,6R,9S,12R,15S,18R,21S,24R)-6-benzyl-3,9,15,21-tetraisobutyl-4,10,12,16,22,24-hexamethyl-18-(4-((4-(pyrimidin-4-yl)-1H-pyrazol-1-yl)methyl)benzyl)-1,7,13,19-tetraoxa-4,10,16,22-tetraazacyclotetracosan-2,5,8,11,14,17,20,23-octaone]	0.001 to 0.01	1 to 10
CC(C)C[C@H]1C(=O)O[C@H](Cc2ccc(Cn3nccc3C(C)(C)C)cc2)C(=O)N(C)[C@@H](CC(C)C)C(=O)O[C@H](C)C(=O)N(C)[C@@H](CC(C)C)C(=O)O[C@H](Cc2ccccc2)C(=O)N(C)[C@@H](CC(C)C)C(=O)O[C@H](C)C(=O)N1C [Example 2-68, (3S,6R,9S,12R,15S,18R,21S,24R)-6-benzyl-18-(4-((5-(tert-butyl)-1H-pyrazol-1-yl)methyl)benzyl)-3,9,15,21-tetraisobutyl-4,10,12,16,22,24-hexamethyl-1,7,13,19-tetraoxa-4,10,16,22-tetraazacyclotetracosan-2,5,8,11,14,17,20,23-octaone]	0.01 to 0.1	1 to 10
CC(C)C[C@H]1C(=O)O[C@H](Cc2ccc(Cn3ccc(C4CC4)n3)cc2)C(=O)N(C)[C@@H](CC(C)C)C(=O)O[C@H](C)C(=O)N(C)[C@@H](CC(C)C)C(=O)O[C@H](Cc2ccccc2)C(=O)N(C)[C@@H](CC(C)C)C(=O)O[C@H](C)C(=O)N1C [Example 2-74, (3S,6R,9S,12R,15S,18R,21S,24R)-6-benzyl-18-(4-((3-cyclopropyl-1H-pyrazol-1-yl)methyl)benzyl)-3,9,15,21-tetraisobutyl-4,10,12,16,22,24-hexamethyl-1,7,13,19-tetraoxa-4,10,16,22-tetraazacyclotetracosan-2,5,8,11,14,17,20,23-octaone]	0.001 to 0.01	1 to 10
Cc1nn(Cc2ccc(C[C@H]3OC(=O)[C@H](CC(C)C)N(C)C(=O)[C@@H](C)OC(=O)[C@H](CC(C)C)N(C)C(=O)[C@@H](Cc4ccccc4)OC(=O)[C@H](CC(C)C)N(C)C(=O)[C@@H](C)OC(=O)[C@H](CC(C)C)N(C)C3=O)cc2)c(C)c1F [Example 2-79, (3S,6R,9S,12R,15S,18R,21S,24R)-6-benzyl-18-(4-((4-fluoro-3,5-dimethyl-1H-pyrazol-1-yl)methyl)benzyl)-3,9,15,21-tetraisobutyl-4,10,12,16,22,24-hexamethyl-1,7,13,19-tetraoxa-4,10,16,22-tetraazacyclotetracosan-2,5,8,11,14,17,20,23-octaone]	0.01 to 0.1	1 to 10
CC(C)C[C@H]1C(=O)O[C@H](Cc2ccc(Cn3ccc(N)n3)cc2)C(=O)N(C)[C@@H](CC(C)C)C(=O)O[C@H](C)C(=O)N(C)[C@@H](CC(C)C)C(=O)O[C@H](Cc2ccccc2)C(=O)N(C)[C@@H](CC(C)C)C(=O)O[C@H](C)C(=O)N1C [Example 2-87, (3S,6R,9S,12R,15S,18R,21S,24R)-6-(4-((3-amino-1H-pyrazol-1-yl)methyl)benzyl)-18-benzyl-3,9,15,21-tetraisobutyl-4,10,12,16,22,24-hexamethyl-1,7,13,19-tetraoxa-4,10,16,22-tetraazacyclotetracosan-2,5,8,11,14,17,20,23-octaone]	0.001 to 0.01	1 to 10
CC(C)C[C@H]1C(=O)O[C@H](Cc2ccc(Cn3ccnc3C3CC3)cc2)C(=O)N(C)[C@@H](CC(C)C)C(=O)O[C@H](C)C(=O)N(C)[C@@H](CC(C)C)C(=O)O[C@H](Cc2ccc(Cn3ccnc3C3CC3)cc2)C(=O)N(C)[C@@H](CC(C)C)C(=O)O[C@H](C)C(=O)N1C [Example 6-7, (3S,6R,9S,12R,15S,18R,21S,24R)-6,18-bis[[4-[(2-cyclopropylimidazol-1-yl)methyl]phenyl]methyl]-3,9,15,21-tetraisobutyl-4,10,12,16,22,24-hexamethyl-1,7,13,19-tetraoxa-4,10,16,22-tetrazacyclotetracosane-2,5,8,11,14,17,20,23-octaone]	0.01 to 0.1	1 to 10
CCOCc1nccn1Cc1ccc(C[C@H]2OC(=O)[C@H](CC(C)C)N(C)C(=O)[C@@H](C)OC(=O)[C@H](CC(C)C)N(C)C(=O)[C@@H](Cc3ccc(Cn4ccnc4COCC)cc3)OC(=O)[C@H](CC(C)C)N(C)C(=O)[C@@H](C)OC(=O)[C@H](CC(C)C)N(C)C2=O)cc1 [Example 6-20, (3S,6R,9S,12R,15S,18R,21S,24R)-6,18-bis(4-((2-(ethoxymethyl)-1H-imidazol-1-yl)methyl)benzyl)-3,9,15,21-tetraisobutyl-4,10,12,16,22,24-hexamethyl-1,7,13,19-tetraoxa-4,10,16,22-tetraazacyclotetracosan-2,5,8,11,14,17,20,23-octaone]	0.001 to 0.01	1 to 10
CCc1nccn1Cc1ccc(C[C@H]2OC(=O)[C@H](CC(C)C)N(C)C(=O)[C@@H](C)OC(=O)[C@H](CC(C)C)N(C)C(=O)[C@@H](Cc3ccccc3)OC(=O)[C@H](CC(C)C)N(C)C(=O)[C@@H](C)OC(=O)[C@H](CC(C)C)N(C)C2=O)cc1 [Example 8-4, (3S,6R,9S,12R,15S,18R,21S,24R)-6-benzyl-18-[[4-[(2-ethylimidazol-1-yl)methyl]phenyl]methyl]-3,9,15,21-tetraisobutyl-4,10,12,16,22,24-hexamethyl-1,7,13,19-tetraoxa-4,10,16,22-tetrazacyclotetracosane-2,5,8,11,14,17,20,23-octaone]	0.01 to 0.1	1 to 10
CC(C)C[C@H]1C(=O)O[C@H](Cc2ccc(Cn3ccnc3C(C)(C)C)cc2)C(=O)N(C)[C@@H](CC(C)C)C(=O)O[C@H](C)C(=O)N(C)[C@@H](CC(C)C)C(=O)O[C@H](Cc2ccccc2)C(=O)N(C)[C@@H](CC(C)C)C(=O)O[C@H](C)C(=O)N1C [Example 8-6, (3S,6R,9S,12R,15S,18R,21S,24R)-6-benzyl-18-[[4-[(2-tert-butylimidazol-1-yl)methyl]phenyl]methyl]-3,9,15,21-tetraisobutyl-4,10,12,16,22,24-hexamethyl-1,7,13,19-tetraoxa-4,10,16,22-tetrazacyclotetracosane-2,5,8,11,14,17,20,23-octaone]	0.01 to 0.1	1 to 10
CC(C)C[C@H]1C(=O)O[C@H](Cc2ccc(Cn3ccnc3C3CC3)cc2)C(=O)N(C)[C@@H](CC(C)C)C(=O)O[C@H](C)C(=O)N(C)[C@@H](CC(C)C)C(=O)O[C@H](Cc2ccccc2)C(=O)N(C)[C@@H](CC(C)C)C(=O)O[C@H](C)C(=O)N1C [Example 8-7, (3S,6R,9S,12R,15S,18R,21S,24R)-6-benzyl-18-[[4-[(2-cyclopropylimidazol-1-yl)methyl]phenyl]methyl]-3,9,15,21-tetraisobutyl-4,10,12,16,22,24-hexamethyl-1,7,13,19-tetraoxa-4,10,16,22-tetrazacyclotetracosane-2,5,8,11,14,17,20,23-octaone]	0.001 to 0.01	1 to 10
CC(C)C[C@H]1C(=O)O[C@H](Cc2ccc(Cn3ccnc3C(C)C)cc2)C(=O)N(C)[C@@H](CC(C)C)C(=O)O[C@H](C)C(=O)N(C)[C@@H](CC(C)C)C(=O)O[C@H](Cc2ccccc2)C(=O)N(C)[C@@H](CC(C)C)C(=O)O[C@H](C)C(=O)N1C [Example 8-8, (3S,6R,9S,12R,15S,18R,21S,24R)-6-benzyl-3,9,15,21-tetraisobutyl-18-(4-((2-isopropyl-1H-imidazol-1-yl)methyl)benzyl)-4,10,12,16,22,24-hexamethyl-1,7,13,19-tetraoxa-4,10,16,22-tetraazacyclotetracosan-2,5,8,11,14,17,20,23-octaone]	0.001 to 0.01	1 to 10
CC(C)C[C@H]1C(=O)O[C@H](Cc2ccc(Cn3ccnc3CO)cc2)C(=O)N(C)[C@@H](CC(C)C)C(=O)O[C@H](C)C(=O)N(C)[C@@H](CC(C)C)C(=O)O[C@H](Cc2ccccc2)C(=O)N(C)[C@@H](CC(C)C)C(=O)O[C@H](C)C(=O)N1C [Example 8-13, (3S,6R,9S,12R,15S,18R,21S,24R)-6-benzyl-18-(4-((2-(hydroxymethyl)-1H-imidazol-1-yl)methyl)benzyl)-3,9,15,21-tetraisobutyl-4,10,12,16,22,24-hexamethyl-1,7,13,19-tetraoxa-4,10,16,22-tetraazacyclotetracosan-2,5,8,11,14,17,20,23-octaone]	0.001 to 0.01	1 to 10
